System: Hs-578T
Assay: Cytotoxicity against human Hs-578T cells assessed as cell viability at 10 uM incubated for 72 hrs by SRB assay relative to control
Type: functional
Settings: read-out: Activity

Row | Compound | viability at 10 µM [%]
1 | COc1cccc2c1C(=O)c1c(O)c3c(c(O)c1C2=O)C[C@@](O)(C(=O)CO)C[C@@H]3O[C@H]1C[C@H](N)[C@H](O)[C@H](C)O1 [DOXORUBICIN] | 8.65
2 | COc1cccc(-c2nc3c(c(=O)[nH]2)Cc2cc(OC)ccc2O3)c1 | 88
3 | COc1cccc2c1Oc1nc(/C=C/c3ccccc3)[nH]c(=O)c1C2 | 99.8
4 | COc1ccccc1-c1nc2c(c(=O)[nH]1)Cc1cc(Cl)ccc1O2 | 78.4
5 | COc1cccc2c1Oc1nc(-c3ccccc3)[nH]c(=O)c1C2 | 91.1
6 | COc1cccc2c1Oc1nc(-c3cccc(Cl)c3)[nH]c(=O)c1C2 | 72
7 | COc1cccc2c1Oc1nc(-c3ccccc3Cl)[nH]c(=O)c1C2 | 81.7
8 | COc1cccc(-c2nc3c(c(=O)[nH]2)Cc2cccc(OC)c2O3)c1 | 99.3

System: Hs-578T
Assay: Cytotoxicity against human Hs-578T cells assessed as cell viability at 30 uM incubated for 72 hrs by SRB assay relative to control
Type: functional
Settings: read-out: Activity

Row | Compound | viability at 30 µM [%]
9 | COc1cccc2c1C(=O)c1c(O)c3c(c(O)c1C2=O)C[C@@](O)(C(=O)CO)C[C@@H]3O[C@H]1C[C@H](N)[C@H](O)[C@H](C)O1 [DOXORUBICIN] | 7.61
10 | COc1cccc(-c2nc3c(c(=O)[nH]2)Cc2cc(OC)ccc2O3)c1 | 77
11 | COc1cccc2c1Oc1nc(/C=C/c3ccccc3)[nH]c(=O)c1C2 | 97.9
12 | COc1ccccc1-c1nc2c(c(=O)[nH]1)Cc1cc(Cl)ccc1O2 | 38.7
13 | COc1cccc2c1Oc1nc(-c3ccccc3)[nH]c(=O)c1C2 | 75.8
14 | COc1cccc2c1Oc1nc(-c3cccc(Cl)c3)[nH]c(=O)c1C2 | 49.9
15 | COc1cccc2c1Oc1nc(-c3ccccc3Cl)[nH]c(=O)c1C2 | 72.5
16 | COc1cccc(-c2nc3c(c(=O)[nH]2)Cc2cccc(OC)c2O3)c1 | 85.3

System: MDA-MB-231
Assay: Cytotoxicity against human MDA-MB-231 cells assessed as cell viability at 10 uM incubated for 72 hrs by SRB assay relative to control
Type: functional
Settings: read-out: Activity

Row | Compound | viability at 10 µM [%]
17 | COc1cccc2c1C(=O)c1c(O)c3c(c(O)c1C2=O)C[C@@](O)(C(=O)CO)C[C@@H]3O[C@H]1C[C@H](N)[C@H](O)[C@H](C)O1 [DOXORUBICIN] | 6.72
18 | COc1cccc(-c2nc3c(c(=O)[nH]2)Cc2cc(OC)ccc2O3)c1 | 69.3
19 | COc1cccc2c1Oc1nc(/C=C/c3ccccc3)[nH]c(=O)c1C2 | 99.2
20 | COc1ccccc1-c1nc2c(c(=O)[nH]1)Cc1cc(Cl)ccc1O2 | 88.2
21 | COc1cccc2c1Oc1nc(-c3ccccc3)[nH]c(=O)c1C2 | 91.8
22 | COc1cccc2c1Oc1nc(-c3cccc(Cl)c3)[nH]c(=O)c1C2 | 80.8
23 | COc1cccc2c1Oc1nc(-c3ccccc3Cl)[nH]c(=O)c1C2 | 92.5
24 | COc1cccc(-c2nc3c(c(=O)[nH]2)Cc2cccc(OC)c2O3)c1 | 70.5

System: MDA-MB-231
Assay: Cytotoxicity against human MDA-MB-231 cells assessed as cell viability at 30 uM incubated for 72 hrs by SRB assay relative to control
Type: functional
Settings: read-out: Activity

Row | Compound | viability at 30 µM [%]
25 | COc1cccc2c1C(=O)c1c(O)c3c(c(O)c1C2=O)C[C@@](O)(C(=O)CO)C[C@@H]3O[C@H]1C[C@H](N)[C@H](O)[C@H](C)O1 [DOXORUBICIN] | 5.85
26 | COc1cccc(-c2nc3c(c(=O)[nH]2)Cc2cc(OC)ccc2O3)c1 | 41.2
27 | COc1cccc2c1Oc1nc(/C=C/c3ccccc3)[nH]c(=O)c1C2 | 92.5
28 | COc1ccccc1-c1nc2c(c(=O)[nH]1)Cc1cc(Cl)ccc1O2 | 65
29 | COc1cccc2c1Oc1nc(-c3ccccc3)[nH]c(=O)c1C2 | 89.2
30 | COc1cccc2c1Oc1nc(-c3cccc(Cl)c3)[nH]c(=O)c1C2 | 76.9
31 | COc1cccc2c1Oc1nc(-c3ccccc3Cl)[nH]c(=O)c1C2 | 90.1
32 | COc1cccc(-c2nc3c(c(=O)[nH]2)Cc2cccc(OC)c2O3)c1 | 51.6

System: MCF7
Assay: Cytotoxicity against human MCF7 cells assessed as cell viability at 10 uM incubated for 72 hrs by SRB assay relative to control
Type: functional
Settings: read-out: Activity

Row | Compound | viability at 10 µM [%]
33 | COc1cccc2c1C(=O)c1c(O)c3c(c(O)c1C2=O)C[C@@](O)(C(=O)CO)C[C@@H]3O[C@H]1C[C@H](N)[C@H](O)[C@H](C)O1 [DOXORUBICIN] | 24.5
34 | COc1cccc(-c2nc3c(c(=O)[nH]2)Cc2cc(OC)ccc2O3)c1 | 73.1
35 | COc1cccc2c1Oc1nc(/C=C/c3ccccc3)[nH]c(=O)c1C2 | 84.7
36 | COc1ccccc1-c1nc2c(c(=O)[nH]1)Cc1cc(Cl)ccc1O2 | 80
37 | COc1cccc2c1Oc1nc(-c3ccccc3)[nH]c(=O)c1C2 | 91.2
38 | COc1cccc2c1Oc1nc(-c3cccc(Cl)c3)[nH]c(=O)c1C2 | 69.8
39 | COc1cccc2c1Oc1nc(-c3ccccc3Cl)[nH]c(=O)c1C2 | 74.7
40 | COc1cccc(-c2nc3c(c(=O)[nH]2)Cc2cccc(OC)c2O3)c1 | 93.6

System: MCF7
Assay: Cytotoxicity against human MCF7 cells assessed as cell viability at 30 uM incubated for 72 hrs by SRB assay relative to control
Type: functional
Settings: read-out: Activity

Row | Compound | viability at 30 µM [%]
41 | COc1cccc2c1C(=O)c1c(O)c3c(c(O)c1C2=O)C[C@@](O)(C(=O)CO)C[C@@H]3O[C@H]1C[C@H](N)[C@H](O)[C@H](C)O1 [DOXORUBICIN] | 28.8
42 | COc1cccc(-c2nc3c(c(=O)[nH]2)Cc2cc(OC)ccc2O3)c1 | 49.8
43 | COc1cccc2c1Oc1nc(/C=C/c3ccccc3)[nH]c(=O)c1C2 | 56.7
44 | COc1ccccc1-c1nc2c(c(=O)[nH]1)Cc1cc(Cl)ccc1O2 | 57.3
45 | COc1cccc2c1Oc1nc(-c3ccccc3)[nH]c(=O)c1C2 | 88.5
46 | COc1cccc2c1Oc1nc(-c3cccc(Cl)c3)[nH]c(=O)c1C2 | 40.4
47 | COc1cccc2c1Oc1nc(-c3ccccc3Cl)[nH]c(=O)c1C2 | 58.2
48 | COc1cccc(-c2nc3c(c(=O)[nH]2)Cc2cccc(OC)c2O3)c1 | 71.3

From ChEMBL document CHEMBL5385961, “In vitro and in vivo evaluation of novel chromeno[2,3-d]pyrimidinones as therapeutic agents for triple negative breast cancer” (RSC Med Chem, 2024)
